Experimental data as given in US20240246995A1, “PYRIMIDINONE DERIVATIVE AND PREPARATION METHOD THEREFOR, PHARMACEUTICAL COMPOSITION, AND USE” (SHANGHAI SIMR BIOTECHNOLOGY CO., LTD., priority 2021, published 2024).

Target: T1, Lipoprotein-Related Phospholipase A2 (Lp-PLA2) in Human Plasma (Homo sapiens, UniProt Q13093)
T1 construct: 40 μL of equally-divided and thawed mixed human plasma is pre-added; from tissue; host or cells: mixed (pooled) human plasma
T1 sequence (Q13093 22-441): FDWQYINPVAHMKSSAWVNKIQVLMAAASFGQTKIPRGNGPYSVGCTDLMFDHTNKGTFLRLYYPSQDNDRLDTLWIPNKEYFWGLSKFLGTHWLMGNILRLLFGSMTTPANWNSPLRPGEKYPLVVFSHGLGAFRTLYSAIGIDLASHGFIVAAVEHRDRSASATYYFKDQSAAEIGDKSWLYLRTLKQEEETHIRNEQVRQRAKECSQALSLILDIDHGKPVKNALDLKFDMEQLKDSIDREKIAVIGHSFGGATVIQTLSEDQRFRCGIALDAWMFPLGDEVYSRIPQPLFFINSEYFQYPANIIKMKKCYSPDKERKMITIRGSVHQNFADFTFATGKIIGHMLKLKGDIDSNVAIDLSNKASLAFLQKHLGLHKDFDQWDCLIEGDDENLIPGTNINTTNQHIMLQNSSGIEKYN
Test: Determination of Lp-PLA2 in human plasma (Thio-PAF assay)
Format: biochemical
Details: mixed human plasma, 2-thio-PAF substrate, 30 minutes pre-incubation at room temperature
From the text: Determination of Lipoprotein-Related Phospholipase A2 (Lp-PLA2) in Human Plasma.
Human plasma determination utilizes a thioester analogue of phosphatidylcholine (PAF), where hydrolysis leads to the formation of phospholipids containing free thiol groups. The amount of the thiol groups is continuously determined by reacting with CPM (7-diethylamino-3-(4′-maleimidophenyl)-4-methylcoumarin), which is maleimide with increased fluorescence after Michael addition of the thiol groups. This determination can detect the activity of Lp-PLA2 in human plasma, for example, determined by the specific inhibition of the Lp-PLA2 inhibitors.
Thio-PAF determination, as quenched 75 μL determination, is carried out. A compound source plate is prepared by preparing a 1:3 (volume) series of diluents of each compound in pure DMSO on a 96-well microplate. A Rainin multi-channel pipette is used to transfer 3 μL of a compound on the compound source plate into a 96-well microplate where 57 μL of a determination buffer is pre-added, and the compound on the source plate is diluted by 20 folds. The above determination buffer contains 50 mM HEPES (pH 7.4), 150 mM NaCl, and 1 mM CHAPS. A Rainin multi-channel pipette is used to transfer 1 μL of the compound subjected to 20-fold dilution into a 96-well Greiner 655076 (black) microplate where 40 μL of equally-divided and thawed mixed human plasma is pre-added. The plate is oscillated for 20 seconds in an Elisa plate oscillator to be mixed evenly. After 30 minutes of pre-incubation at the room temperature, a Rainin multi-channel pipette is used to add 10 μL of a substrate solution to a 96-well Greiner 655076 (black) microplate, and the substrate solution contains 2.5 mM 2-thio-PAF [from ethanol mother liquor], 32 μM CPM [from DMSO mother liquor] and 3.2 mM NEM (N-ethylmaleimide) [newly prepared in DMSO for each experiment] in a determination buffer composed of 50 mM HEPES (pH 7.4), 150 mM NaCl, and 1 mM CHAPS. After 2 minutes, 25 μL of a 5% trifluoroacetic acid (TFA) aqueous solution is used for quenching the reaction. The plate is centrifuged at 2000 rpm for 1 minute. A Biotek Synergy H1 (H1MF) Elisa reader is used to read the plate at ex:380/em:485. GraphPad Prism 6.0 and Excel are used for IC50 data, curve, and QC analysis.

IC50 [nM]	SMILES
23.2	Cc1cc(Oc2c(F)cc(COc3cc4n(c(=O)n3)CCC3(C)CCCN43)cc2F)ccn1 (stereo not drawn) [Example 35, 2-((3,5-fluoro-4-((2-methylpyrid-4-yl)oxy)benzyl)oxy)-7a-methyl-6,7,7a, 8,9,10-hexahydro-4H-pyrimidinyl [1,6-a]pyrrolo[1,2-c] pyrimidine-4-one]
17.4	CC12CCCN1c1cc(OCc3cc(F)c(Oc4ccnc(Cl)c4)c(F)c3)nc(=O)n1CC2 (stereo not drawn) [Example 36]
34	CC12CCCN1c1cc(OCc3ccc(F)c(C#N)c3)nc(=O)n1CC2 (stereo not drawn) [Example 37]
8.1	CCC12CCCN1c1cc(OCc3cc(F)c(Oc4ccnc(C(F)(F)F)c4)c(F)c3)nc(=O)n1CC2 (stereo not drawn) [Example 38, 2-((3,5-difluoro-4-((2-(trifluoromethyl)pyrid-4-yl)oxy)benzyl)oxy)-7a-ethyl-6,7,7a,8,9,10-hexahydro-4H-pyrimido[1,6-a] pyrrolo[1,2-c] pyrimidine-4-one]
33.1	CCC12CCCN1c1cc(OCc3cc(F)c(Oc4ccc(Cl)c(C(F)(F)F)c4)c(F)c3)nc(=O)n1CC2 (stereo not drawn) [Example 39, 2-((4-(4-chloro-3-(trifluoromethyl)phenoxy)-3,5-difluorobenzyl)oxy)-7a-ethyl-6,7,7a,8,9, 10-hexahydro-4H-pyrimidinyl[1,6-a] pyrrolo[1,2-c] pyrimidine-4-one]
10.7	CCC12CCCN1c1cc(OCc3ccc(Oc4cccc(C(F)(F)F)c4)c(C#N)c3)nc(=O)n1CC2 (stereo not drawn) [Example 40]
235	CCC12CCCN1c1cc(OCCc3ccc(Oc4ccc(Cl)c(C(F)(F)F)c4)cc3)nc(=O)n1CC2 (stereo not drawn) [Example 41, 2-(4-(4-chloro-3-(trifluoromethyl)phenoxy)phenyl-ethoxy)-7a-ethyl-6,7,7a, 8,9,10-hexahydro-4H-pyrimidine [1,6-a]pyrrole[1,2-c]pyrimidine-4-one]
24.4	O=c1nc(OCc2ccc(Oc3ccnc(C(F)(F)F)c3)c(F)c2)cc2n1CCC1CCCCN21 (stereo not drawn) [Example 42, 2-((3-fluoro-4-((2-(trifluoromethyl)pyrid-4-yl)oxy)benzyl)oxy)-7,7a,8,9,10,11-hexahydro-4H,6H-pyridine[1,2-c]pyrimidine[1,6-a]pyrimidine-4-one]
11.9	O=c1nc(OCc2cc(F)c(Oc3ccc(Cl)c(C(F)(F)F)c3)c(F)c2)cc2n1CCC1CCCCN21 (stereo not drawn) [Example 43, 2-((4-(4-chloro-3-(trifluoromethyl)phenoxy)-3,5-di-fluorobenzyl)oxy)-7,7a,8,9,10,11-hexahydro-4H,6H-pyri-dyl[1,2-c]pyrimido [1,6-a]pyrimidine-4-one]
14.9	N#Cc1cc(COc2cc3n(c(=O)n2)CCC2CCCCN32)ccc1Oc1cccc(C(F)(F)F)c1 (stereo not drawn) [Example 44]
66.5	O=c1nc(OCc2cc(F)c(Oc3cnc(C(F)(F)F)nc3)c(F)c2)cc2n1CCC1CCCCN21 (stereo not drawn) [Example 45, 2-((3,5-difluoro-4-((2-(trifluoromethyl)pyrimidin-5-yl)oxy)benzyl)oxy)-7,7a,8,9,10,11-hexahydro-4H,6H-pyridino[1,2-c]pyri-mido[1,6-a] pyrimidine-4-one]
220	O=c1nc(OCCc2ccc(Oc3ccc(Cl)c(C(F)(F)F)c3)cc2)cc2n1CCC1CCCCN21 (stereo not drawn) [Example 46, 2-(4-(4-chloro-3-(trifluoromethyl)phenoxy)phenylethoxy)-7,7a,8,9,10,11-hexahydro-4H, 6H-pyridyl[1,2-c] pyrimidinyl[1,6-a] pyrimidine-4-one]
14.6	O=c1nc(OCc2ccc(Oc3ccnc(C(F)(F)F)c3)c(F)c2)cc2n1CC[C@@H]1CCCCN21 [Example 47, (S)-2-((3-fluoro-4-((2-(trifluoromethyl)pyrid-4-yl)oxy)benzyl)oxy)-7,7a, 8,9,10,11-hexahydro-4H,6H-pyridino[1,2-c] pyrimidine[1,6-a] pyrimidine-4-one]
5.1	COc1c(OCc2ccc(Oc3ccnc(C(F)(F)F)c3)c(F)c2)nc(=O)n2c1N1CCCC[C@H]1CC2 [Example 48]
1.6	CC12CCCCN1c1cc(OCc3ccc(Oc4ccnc(C(F)(F)F)c4)c(F)c3)nc(=O)n1CC2 (stereo not drawn) [Example 49, 2-((3-fluoro-4-((2-(trifluoromethyl)pyrid-4-yl)oxy)benzyl)oxy)-7a-methyl-7,7a,8,9,10,11-hexahydro-4H,6H-pyridino[1,2-c] pyrimidine[1,6-a] pyrimidine-4-one]
12.9	Cc1cc(Oc2c(F)cc(COc3cc4n(c(=O)n3)CCC3(C)CCCCN43)cc2F)ccn1 (stereo not drawn) [Example 50, 2-((3,5-difluoro-4-((2-methylpyrid-4-yl)oxy)benzyl)oxy)-7a-methyl-7,7a,8,9,10,11-hexahydro-4H,6H-pyridino [1,2-c]pyrimidine [1,6-a]pyrimidine-4-one]
6.6	O=c1nc(OCc2cc(F)c(Oc3ccnc(C(F)(F)F)c3)c(F)c2)cc2n1CCC1COCCN21 (stereo not drawn) [Example 51, 2-((3,5-difluoro-4-((2-(trifluoromethyl)pyrid-4-yl)oxy)benzyl)oxy)-6,7,7a,8,10,11-hexahydro-4H-pyrimidinyl [6′,1′:2,3]pyrimidine [6,1-c][1,4] oxazin-4-one]
10.6	O=c1nc(OCc2cc(F)c(Oc3ccc(Cl)c(C(F)(F)F)c3)c(F)c2)cc2n1CCC1COCCN21 (stereo not drawn) [Example 52, 2-((4-(4-chloro-3-(trifluoromethyl)phenoxy)-3,5-di-fluorobenzyl)oxy)-6,7,7a,8,10,11-hexahydro-4H-pyrimidinyl [6′,1′:2,3] pyrimido[6,1-c][1,4] oxazin-4-one]
7.3	N#Cc1cc(COc2cc3n(c(=O)n2)CCC2COCCN32)ccc1Oc1cccc(C(F)(F)F)c1 (stereo not drawn) [Example 53]
5.3	O=c1nc(OCc2cc(F)c(Oc3ccnc(OC(F)(F)F)c3)c(F)c2)cc2n1CCC1COCCN21 (stereo not drawn) [Example 54, 2-((3,5-difluoro-4-((2-(trifluoro-methoxy)pyrid-4-yl)oxy)benzyl)oxy)-6,7,7a,8,10,11-hexahydro-4H-pyrimidinyl [6′,1′:2,3] pyrimidine [6,1-c][1,4] oxazin-4-one]
13.7	O=c1nc(OCc2cc(F)c(Oc3cnc(C(F)(F)F)nc3)c(F)c2)cc2n1CCC1COCCN21 (stereo not drawn) [Example 55]
20.1	O=c1nc(OCCc2ccc(Oc3ccc(Cl)c(C(F)(F)F)c3)cc2)cc2n1CCC1COCCN21 (stereo not drawn) [Example 56, 2-(4-(4-chloro-3-(trifluoromethyl)phenoxy)phenyl-ethoxy)-6,7,7a,8,10,11-hexahydro-4H-pyrimidinyl [6′,1′:2,3] pyrimidinyl[6,1-c] [1,4]oxazin-4-one]
3.3	O=c1nc(OCc2ccc(Oc3ccnc(C(F)(F)F)c3)c(F)c2)c(F)c2n1CC[C@]13CO[C@H](CN21)C3 [Example 57, (7aS,10S)-1-fluoro-2-((3-fluoro-4-((2-(trifluoromethyl)pyrid-4-yl)oxy)benzyl)oxy)-6,7,10, 11-tetrahydro-4H, 8H-7a,10-methyl-pyrimidinyl[6′,1′: 2,3]pyrimidinyl [6,1-c][1,4]oxazin-4-one]
3.4	O=c1nc(OCc2ccc(Oc3ccnc(C(F)(F)F)c3)c(F)c2)c(Cl)c2n1CC[C@]13CO[C@H](CN21)C3 [Example 58, (7aS,10S)-1-chloro-2-((3-fluoro-4-((2-(trifluoromethyl)pyrid-4-yl)oxy)benzyl)oxy)-6,7,10, 11-tetrahydro-4H, 8H-7a,10-methyl-pyrimidinyl[6′,1′: 2,3]pyrimidinyl [6,1-c][1,4]oxazin-4-one]
